Patent publication US20250270213A1, “PI3Ka INHIBITORS” (Synnovation Therapeutics, Inc., priority 2022, published 2025)

System: T47D (PIK3CA H1047R) cells
Experiment: pS473 AKT assay with 2.5% FBS, T47D cells
Type: cell-based
Conditions: Homo sapiens, pSer473 AKT, DMEM with 2.5% FBS, 2 h treatment, read-out: T47D_IC50
How it was run: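 T47D (PIK3CA H1047R) cells were switched to DMEM with 2.5% FBS and exposed to compounds for 2 h. After paraformaldehyde fixation, pSer473 AKT was detected by in-cell ELISA (rabbit primary, HRP anti-rabbit secondary, chemiluminescence); IC50 values were fitted from the concentration series.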

Structure (SMILES)	IC50 [µM]
Cc1cc(C(C)Nc2ccc(Cl)nc2-c2cccnc2)c2c(c1)c(=O)n(C)c1c2cnn1C1CCN(C)CC1 (centres unmarked) [Compound 169, 9-[1-[[6-chloro-2-(3-pyridyl)-3-pyridyl]amino]ethyl]-4,7-dimethyl-3-(1-methyl-4-piperidyl)pyrazolo[3,4-c]isoquinolin-5-one]	< 1
CNC(=O)c1ccc(-c2nc(C)ccc2NC(C)c2cc(C)cc3c(=O)n(C)c4c(cnn4C4CCN(C)CC4)c23)cn1 (centres unmarked) [Compound 170]	< 1
Cc1cc(C(C)Nc2ccc(Cl)nc2-c2ccn(C)c(=O)c2)c2c(c1)c(=O)n(C)c1c2cnn1C1CCN(C)CC1 (centres unmarked) [Compound 171, 9-[1-[[6-chloro-2-(1-methyl-2-oxo-4-pyridyl)-3-pyridyl]amino]ethyl]-4,7-dimethyl-3-(1-methyl-4-piperidyl)pyrazolo[3,4-c]isoquinolin-5-one]	< 1
Cc1cc(C(C)Nc2ccc(Cl)nc2-c2cnn(C)c2)c2c(c1)c(=O)n(C)c1c2cnn1C1CCN(CC(C)(C)O)CC1 (centres unmarked) [Compound 172, 9-[1-[[6-Chloro-2-(1-methylpyrazol-4-yl)-3-pyridyl]amino]ethyl]-3-[1-(2-hydroxy-2-methyl-propyl)-4-piperidyl]-4,7-dimethyl-pyrazolo[3,4-c]isoquinolin-5-one]	< 1
Cc1cc(C(C)Nc2ccc(Cl)nc2-c2cnn(C)c2)c2c(c1)c(=O)n(C)c1c2cnn1C1CCN(C[C@@H](C)O)CC1 (stereo partly drawn) [Compound 173, 9-[1-[[6-chloro-2-(1-methylpyrazol-4-yl)-3-pyridyl]amino]ethyl]-3-[1-[(2R)-2-hydroxypropyl]-4-piperidyl]-4,7-dimethyl-pyrazolo[3,4-c]isoquinolin-5-one]	< 1
Cc1cc(C(C)Nc2ccc(Cl)nc2-c2cnn(C)c2)c2c(c1)c(=O)n(C)c1c2cnn1C1CCN(C[C@H](C)O)CC1 (stereo partly drawn) [Compound 174, 9-[1-[[6-chloro-2-(1-methylpyrazol-4-yl)-3-pyridyl]amino]ethyl]-3-[1-[(2S)-2-hydroxypropyl]-4-piperidyl]-4,7-dimethyl-pyrazolo[3,4-c]isoquinolin-5-one]	< 1
Cc1cc(C(C)Nc2ccc(Cl)nc2-c2ncn(C)n2)c2c(c1)c(=O)n(C)c1c2cnn1C1CCN(CC(C)(C)O)CC1 (centres unmarked) [Compound 175, 9-(1-((6-chloro-2-(1-methyl-1H-1,2,4-triazol-3-yl)pyridin-3-yl)amino)ethyl)-3-(1-(2-hydroxy-2-methylpropyl)piperidin-4-yl)-4,7-dimethyl-3,4-dihydro-5H-pyrazolo[3,4-c]isoquinolin-5-one]	< 1
Cc1cc(C(C)Nc2ccc(Cl)nc2-c2ncn(C)n2)c2c(c1)c(=O)n(C)c1c2cnn1C1CCNCC1 (centres unmarked) [Compound 176, 9-(1-((6-Chloro-2-(1-methyl-1H-1,2,4-triazol-3-yl)pyridin-3-yl)amino)ethyl)-4,7-dimethyl-3-(piperidin-4-yl)-3,4-dihydro-5H-pyrazolo[3,4-c]isoquinolin-5-one]	< 1
Cc1cc(C(C)Nc2ccc(Cl)nc2-c2ncn(C)n2)c2c(c1)c(=O)n(C)c1c2cnn1C1CCN(CCO)CC1 (centres unmarked) [Compound 177, 9-[1-[[6-Chloro-2-(1-methyl-1,2,4-triazol-3-yl)-3-pyridyl]amino]ethyl]-3-[1-(2-hydroxyethyl)-4-piperidyl]-4,7-dimethyl-pyrazolo[3,4-c]isoquinolin-5-one]	< 1
Cc1cc(C(C)Nc2ccc(Cl)nc2-c2ncn(C)n2)c2c(c1)c(=O)n(C)c1c2cnn1C1CCN(Cc2nccn2C)CC1 (centres unmarked) [Compound 178, 9-(1-((6-chloro-2-(1-methyl-1H-1,2,4-triazol-3-yl)pyridin-3-yl)amino)ethyl)-4,7-dimethyl-3-(1-((1-methyl-1H-imidazol-2-yl)methyl)piperidin-4-yl)-3,4-dihydro-5H-pyrazolo[3,4-c]isoquinolin-5-one]	< 1
Cc1cc(C(C)Nc2ccc(Cl)nc2-c2ncn(C)n2)c2c(c1)c(=O)n(C)c1c2cnn1C1CCN(C2COC2)CC1 (centres unmarked) [Compound 179, 9-(1-((6-chloro-2-(1-methyl-1H-1,2,4-triazol-3-yl)pyridin-3-yl)amino)ethyl)-4,7-dimethyl-3-(1-(oxetan-3-yl)piperidin-4-yl)-3,4-dihydro-5H-pyrazolo[3,4-c]isoquinolin-5-one]	< 1
Cc1cc(C(C)Nc2ccc(Cl)nc2-c2ncn(C)n2)c2c(c1)c(=O)n(C)c1c2cnn1C1CCN(CCC#N)CC1 (centres unmarked) [Compound 180, 3-[4-[9-[1-[[6-Chloro-2-(1-methyl-1,2,4-triazol-3-yl)-3-pyridyl]amino]ethyl]-4,7-dimethyl-5-oxo-pyrazolo[3,4-c]isoquinolin-3-yl]-1-piperidyl]propanenitrile]	< 1
Cc1cc(C(C)Nc2ccc(Cl)nc2-c2ncn(C)n2)c2c(c1)c(=O)n(C)c1c2cnn1C1CCN(CC(F)F)CC1 (centres unmarked) [Compound 181, 9-(1-((6-Chloro-2-(1-methyl-1H-1,2,4-triazol-3-yl)pyridin-3-yl)amino)ethyl)-3-(1-(2,2-difluoroethyl)piperidin-4-yl)-4,7-dimethyl-3,4-dihydro-5H-pyrazolo[3,4-c]isoquinolin-5-one]	< 1
CC(=O)N1CCC(n2ncc3c4c(C(C)Nc5ccc(Cl)nc5-c5cnn(C)c5)cc(C)cc4c(=O)n(C)c32)CC1 (centres unmarked) [Compound 182, 3-(1-Acetylpiperidin-4-yl)-9-(1-((6-chloro-2-(1-methyl-1H-pyrazol-4-yl)pyridin-3-yl)amino)ethyl)-4,7-dimethyl-3,4-dihydro-5H-pyrazolo[3,4-c]isoquinolin-5-one]	< 1

More lines, now with the values ahead:

IC50 [µM]	Structure (SMILES)
< 1	[2H]C([2H])([2H])n1c(=O)c2cc(C)cc(C(C)Nc3ccc(Cl)nc3-c3cnn(C)c3)c2c2cnn(C3CCN(C(=O)C4(C#N)CC4)C3)c21 (centres unmarked) [Compound 157, 1-(3-(9-(1-((6-chloro-2-(1-methyl-1H-pyrazol-4-yl)pyridin-3-yl)amino)ethyl)-7-methyl-4-(methyl-d3)-5-oxo-4,5-dihydro-3H-pyrazolo[3,4-c]isoquinolin-3-yl)pyrrolidine-1-carbonyl)cyclopropane-1-carbonitrile]
< 1	Cc1cc(C(C)Nc2ccc(Cl)nc2-c2cnn(C)c2)c2c(c1)c(=O)n(C)c1c2cnn1C1CCN(C)CC1 (centres unmarked) [Compound 158, 9-(1-((6-Chloro-2-(1-methyl-1H-pyrazol-4-yl)pyridin-3-yl)amino)ethyl)-4,7-dimethyl-3-(1-methylpiperidin-4-yl)-3,4-dihydro-5H-pyrazolo[3,4-c]isoquinolin-5-one]
< 1	Cc1cc(C(C)Nc2ccc(Cl)nc2-c2ncn(C)n2)c2c(c1)c(=O)n(C)c1c2cnn1C1CCN(C)CC1 (centres unmarked) [Compound 159, 9-[1-[[6-chloro-2-(1-methyl-1,2,4-triazol-3-yl)-3-pyridyl]amino]ethyl]-4,7-dimethyl-3-(1-methyl-4-piperidyl)pyrazolo[3,4-c]isoquinolin-5-one]
< 1	CCn1cc(-c2nc(Cl)ccc2NC(C)c2cc(C)cc3c(=O)n(C)c4c(cnn4C4CCN(C)CC4)c23)cn1 (centres unmarked) [Compound 160, 9-[1-[[6-chloro-2-(1-ethylpyrazol-4-yl)-3-pyridyl]amino]ethyl]-4,7-dimethyl-3-(1-methyl-4-piperidyl)pyrazolo[3,4-c]isoquinolin-5-one]
< 1	Cc1cc(C(C)Nc2ccc(Cl)nc2-c2nnn(C)n2)c2c(c1)c(=O)n(C)c1c2cnn1C1CCN(C)CC1 (centres unmarked) [Compound 161, 9-[1-[[6-chloro-2-(2-methyltetrazol-5-yl)-3-pyridyl]amino]ethyl]-4,7-dimethyl-3-(1-methyl-4-piperidyl)pyrazolo[3,4-c]isoquinolin-5-one]
< 1	Cc1cc(C(C)Nc2ccc(Cl)nc2-c2nnco2)c2c(c1)c(=O)n(C)c1c2cnn1C1CCN(C)CC1 (centres unmarked) [Compound 162, 9-[1-[[6-chloro-2-(1,3,4-oxadiazol-2-yl)-3-pyridyl]amino]ethyl]-4,7-dimethyl-3-(1-methyl-4-piperidyl)pyrazolo[3,4-c]isoquinolin-5-one]
< 1	CNC(=O)c1ccc(-c2nc(Cl)ccc2NC(C)c2cc(C)cc3c(=O)n(C)c4c(cnn4C4CCN(C)CC4)c23)cn1 (centres unmarked) [Compound 163, 5-[6-chloro-3-[1-[4,7-dimethyl-3-(1-methyl-4-piperidyl)-5-oxo-pyrazolo[3,4-c]isoquinolin-9-yl]ethylamino]-2-pyridyl]-N-methyl-pyridine-2-carboxamide]
< 1	Cc1cc(C(C)Nc2ccc(Cl)nc2-c2noc(=O)[nH]2)c2c(c1)c(=O)n(C)c1c2cnn1C1CCN(C)CC1 (centres unmarked) [Compound 164, 3-[6-chloro-3-[1-[4,7-dimethyl-3-(1-methyl-4-piperidyl)-5-oxo-pyrazolo[3,4-c]isoquinolin-9-yl]ethylamino]-2-pyridyl]-4H-1,2,4-oxadiazol-5-one]
< 1	Cc1cc(C(C)Nc2ccc(Cl)nc2-c2cn(C)nc2C)c2c(c1)c(=O)n(C)c1c2cnn1C1CCN(C)CC1 (centres unmarked) [Compound 165, 9-[1-[[6-chloro-2-(1,3-dimethylpyrazol-4-yl)-3-pyridyl]amino]ethyl]-4,7-dimethyl-3-(1-methyl-4-piperidyl)pyrazolo[3,4-c]isoquinolin-5-one]
< 1	Cc1cc(C(C)Nc2ccc(Cl)nc2-c2ccc(=O)n(C)c2)c2c(c1)c(=O)n(C)c1c2cnn1C1CCN(C)CC1 (centres unmarked) [Compound 166, 9-[1-[[6-chloro-2-(1-methyl-6-oxo-3-pyridyl)-3-pyridyl]amino]ethyl]-4,7-dimethyl-3-(1-methyl-4-piperidyl)pyrazolo[3,4-c]isoquinolin-5-one]
< 1	Cc1cc(C(C)Nc2ccc(Cl)nc2N2CCC(O)CC2)c2c(c1)c(=O)n(C)c1c2cnn1C1CCN(C)CC1 (centres unmarked) [Compound 167, 9-[1-[[6-chloro-2-(4-hydroxy-1-piperidyl)-3-pyridyl]amino]ethyl]-4,7-dimethyl-3-(1-methyl-4-piperidyl)pyrazolo[3,4-c]isoquinolin-5-one]
< 1	Cc1cc(C(C)Nc2ccc(Cl)nc2-c2ccncc2F)c2c(c1)c(=O)n(C)c1c2cnn1C1CCN(C)CC1 (centres unmarked) [Compound 168, 9-[1-[[6-chloro-2-(3-fluoro-4-pyridyl)-3-pyridyl]amino]ethyl]-4,7-dimethyl-3-(1-methyl-4-piperidyl)pyrazolo[3,4-c]isoquinolin-5-one]
